Among the test systems are A498; A549; COLO 205; DU-145; HCT-15; IGROV-1; KM12; MDA-MB-435; MDA-N; NCI-H522; NCI/ADR-RES; OVCAR-3; OVCAR-5; RPMI-8226; RXF 393; SF-268; SK-MEL-2; SNB-19; T47D; UACC-257.
Holding throughout (assay): growth of human tumour cells (NCI), 48 h

The structures appear in SMILES notation.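 Five concentrations, 48 hours, 96-well plates. The concentration for 50% growth inhibition is given as GI50.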 Activity calls are given as the source filed them. Cut-off read from the data, not from the text of the source: active = GI50 up to about 1.1 µM and inactive = higher. Bounds are passed on as bounds.

For `CCCCc1ccc(Nc2nc(S)c3ncn(COCCO)c3n2)cc1`, the GI50 was > 100 µM (inactive) in the assay on A498; > 100 µM (inactive) with A549; 20.6 µM (inactive) in the assay with COLO 205; 56.9 µM (inactive) in the assay on DU-145; above 100 µM with HCT-15; 36 µM (inactive) in the assay with IGROV-1. The GI50 was 38 µM (inactive) with KM12; 57.4 µM (inactive) in the assay with MDA-MB-435; 41.9 µM (inactive) in the assay on MDA-N; 20.9 µM (inactive) in the assay on NCI-H522; > 100 µM (inactive) in the assay on NCI/ADR-RES; 21 µM (inactive) in the assay with OVCAR-3. For the same molecule, the GI50 is 86.5 µM (inactive) in the assay with OVCAR-5; 21.3 µM (inactive) with RPMI-8226; 56 µM (inactive) in the assay with RXF 393; > 10 µM (inactive) in the assay on SF-268; 23.4 µM (inactive) in the assay on SK-MEL-2; 31.2 µM (inactive) in the assay with SNB-19. Besides, the GI50 in the assay on T47D was 11.6 µM (inactive); in the assay on UACC-257 it was 30.4 µM (inactive).
As for `CCC/C(Cl)=N/OC(=O)Nc1cc(C(F)(F)F)ccc1OC`, the GI50 in the assay with A498 is 15.1 µM (inactive); with A549 it was 19.5 µM (inactive); in the assay on COLO 205, 1.95 µM (inactive); in the assay on DU-145, 16.3 µM (inactive); in the assay with HCT-15 it was 5.31 µM; in the assay with IGROV-1 it was 16.6 µM (inactive). Besides, the GI50 in the assay with KM12 is 18.1 µM (inactive); with MDA-MB-435, 13.4 µM (inactive); in the assay on MDA-N, 12.1 µM (inactive); with NCI-H522, 1.56 µM (inactive); with NCI/ADR-RES, 17.5 µM (inactive); in the assay on OVCAR-3 it was 16.4 µM (inactive). Moreover, the GI50 in the assay on OVCAR-5 is 17.6 µM (inactive); in the assay with RPMI-8226 it was 2.33 µM (inactive); in the assay with RXF 393, 6.31 µM (inactive); with SF-268, 16.1 µM (inactive); with SK-MEL-2, 16.1 µM (inactive); in the assay with SNB-19, 17.6 µM (inactive). For the same molecule, the GI50 in the assay with T47D was 6.44 µM (inactive); with UACC-257 it was 16.5 µM (inactive).
In the case of `C(=N/NC1=NCCN1)/c1c2ccccc2c(/C=N\NC2=NCCN2)c2ccccc12`, the GI50 in the assay on A498 is 0.324 µM (active); in the assay with A549, 0.0369 µM (active); in the assay with COLO 205, 0.054 µM (active); in the assay on DU-145, 0.0619 µM (active); in the assay with HCT-15, 19.7 µM; in the assay with IGROV-1 it was 0.211 µM (active). Moreover, the GI50 in the assay with KM12 was 0.0885 µM (active); with MDA-MB-435, 0.0376 µM (active); with MDA-N, 0.113 µM (active); in the assay with NCI-H522 it was 0.0698 µM (active); in the assay with NCI/ADR-RES it was 88.3 µM (inactive); in the assay on OVCAR-3, 0.184 µM (active). Also, the GI50 is 0.239 µM (active) in the assay with OVCAR-5; 0.0826 µM (active) with RPMI-8226; 0.155 µM (active) in the assay on RXF 393; 0.0738 µM (active) in the assay with SF-268; 0.147 µM (active) with SK-MEL-2; 0.0746 µM (active) with SNB-19. Moreover, the GI50 in the assay with T47D was 0.11 µM (active); with UACC-257 it was 0.344 µM (active).
As to `COc1ccc(C2(C3c4cc(OC)c(OC)cc4CCN3C)SCCCS2)cc1O` (stereo not given), the GI50 was > 100 µM (inactive) in the assay with A498; > 100 µM (inactive) in the assay on A549; > 100 µM (inactive) in the assay with COLO 205; > 100 µM (inactive) in the assay with DU-145; above 100 µM in the assay with HCT-15; > 100 µM (inactive) in the assay with IGROV-1. The GI50 with KM12 was 71.8 µM (inactive); with MDA-MB-435 it was > 100 µM (inactive); in the assay with MDA-N, > 100 µM (inactive); in the assay with NCI-H522, 41.7 µM (inactive); with NCI/ADR-RES, 94 µM (inactive); with OVCAR-3 it was > 100 µM (inactive). Besides, the GI50 in the assay with OVCAR-5, with RPMI-8226, with RXF 393, in the assay on SF-268, with SK-MEL-2 and in the assay with SNB-19 was > 100 µM (inactive) in each case. Also, the GI50 in the assay on T47D and with UACC-257 was > 100 µM (inactive) throughout.
In the case of `COc1cc(C(c2cc(OC)c(OC)c(OC)c2)N2C(=O)CCC2C(=O)O)cc(OC)c1OC` (stereo not given), the GI50 was > 100 µM (inactive) in the assay on A498; > 100 µM (inactive) in the assay on A549; > 100 µM (inactive) with COLO 205; > 100 µM (inactive) in the assay with DU-145; above 100 µM with HCT-15; > 100 µM (inactive) in the assay on IGROV-1. Further, the GI50 with KM12, in the assay with MDA-MB-435, in the assay with MDA-N, with NCI-H522, in the assay with NCI/ADR-RES and with OVCAR-3 was > 100 µM (inactive) throughout. Also, the GI50 in the assay with OVCAR-5, in the assay with RPMI-8226, with RXF 393, with SF-268, in the assay with SK-MEL-2 and in the assay on SNB-19 was > 100 µM (inactive) throughout. Moreover, the GI50 with T47D and with UACC-257 was > 100 µM (inactive) in each case.
As for `CCCCCCCCCc1cc(O)c(O)cc1CCCCCCCCC`, the GI50 is > 10 µM (inactive) in the assay with A498; > 10 µM (inactive) in the assay with A549; > 10 µM (inactive) in the assay with COLO 205; > 10 µM (inactive) with DU-145; above 10 µM with HCT-15; > 10 µM (inactive) with IGROV-1. Besides, the GI50 in the assay with KM12, with MDA-MB-435, with MDA-N, in the assay with NCI-H522, in the assay on NCI/ADR-RES and in the assay with OVCAR-3 was > 10 µM (inactive) each time. For the same molecule, the GI50 in the assay on OVCAR-5, in the assay on RPMI-8226, in the assay on RXF 393, in the assay with SF-268, in the assay with SK-MEL-2 and with SNB-19 was > 10 µM (inactive) throughout. Moreover, the GI50 with T47D and in the assay with UACC-257 was > 10 µM (inactive) throughout.
In the case of `CCOC(=O)c1nc2ccccc2nc1Nc1ccc(F)cc1`, the GI50 in the assay with A498 is 20.9 µM (inactive); in the assay on A549 it was 50.9 µM (inactive); in the assay with COLO 205 it was > 100 µM (inactive); in the assay with DU-145, 42.2 µM (inactive); in the assay with HCT-15, 57.5 µM; in the assay with IGROV-1 it was 13.7 µM (inactive). In addition, the GI50 is > 100 µM (inactive) with KM12; > 100 µM (inactive) in the assay with MDA-MB-435; > 100 µM (inactive) with MDA-N; 20.4 µM (inactive) with NCI-H522; 16.7 µM (inactive) in the assay on NCI/ADR-RES; > 72.4 µM (inactive) with OVCAR-3. Besides, the GI50 is > 59.3 µM (inactive) in the assay with OVCAR-5; > 100 µM (inactive) with RPMI-8226; 11.9 µM (inactive) in the assay on RXF 393; 8.39 µM (inactive) in the assay with SF-268; 23.6 µM (inactive) with SK-MEL-2; 12.1 µM (inactive) with SNB-19. Further, the results for the GI50 in the assay with T47D and with UACC-257 were 22.9 µM (inactive) and > 100 µM (inactive), respectively.
For the molecule `O=C1/C(=C\c2cccc(Oc3ccccc3)c2)S(=O)(=O)C(c2ccccc2)N1c1cc(Cl)ccc1Cl` (stereo not given), the GI50 is 39.2 µM (inactive) in the assay on A498; 22.2 µM (inactive) in the assay on A549; 22.2 µM (inactive) in the assay with COLO 205; 20.9 µM (inactive) in the assay on DU-145; 21 µM in the assay on HCT-15; 15.6 µM (inactive) in the assay on IGROV-1. Also, the GI50 is 22.9 µM (inactive) in the assay on KM12; 8.13 µM (inactive) in the assay on MDA-MB-435; 10.3 µM (inactive) in the assay on MDA-N; 18.3 µM (inactive) in the assay on NCI-H522; 22.6 µM (inactive) with NCI/ADR-RES; 20.1 µM (inactive) with OVCAR-3. The GI50 in the assay on OVCAR-5 was 20.4 µM (inactive); in the assay with RPMI-8226 it was 5.94 µM (inactive); in the assay on RXF 393, 15.5 µM (inactive); in the assay on SF-268, 18.5 µM (inactive); in the assay with SK-MEL-2 it was 28.2 µM (inactive); in the assay with SNB-19, 16 µM (inactive). The GI50 in the assay with T47D was 20.3 µM (inactive); in the assay on UACC-257, 19.9 µM (inactive).
`Cc1ccnc2nc(-c3ccc(F)cc3)cc(O)c12`: the GI50 in the assay with A498 is 63.2 µM (inactive); in the assay with A549, 54.2 µM (inactive); in the assay with COLO 205 it was 19.5 µM (inactive); in the assay on DU-145, > 69.5 µM (inactive); in the assay with HCT-15 it was 5.08 µM; in the assay with IGROV-1, 26.4 µM (inactive). Also, the GI50 was 7.23 µM (inactive) in the assay on KM12; 3.15 µM (inactive) in the assay on MDA-MB-435; 3.51 µM (inactive) with MDA-N; 9.04 µM (inactive) with NCI-H522; > 86.3 µM (inactive) in the assay on NCI/ADR-RES; 67.6 µM (inactive) in the assay with OVCAR-3. The GI50 in the assay with OVCAR-5 was > 100 µM (inactive); in the assay on RPMI-8226, 35.3 µM (inactive); in the assay on RXF 393, > 82.8 µM (inactive); in the assay with SF-268, 74.6 µM (inactive); with SK-MEL-2, 57.3 µM (inactive); in the assay with SNB-19 it was > 78.7 µM (inactive). The GI50 in the assay with T47D is > 72.6 µM (inactive); in the assay with UACC-257, > 92 µM (inactive).
`COc1ccc2[nH]c3c(C)c4c(c(C)c3c2c1)CN(C)C=C4`: the GI50 was 1.36 µM (inactive) in the assay with A498; 0.873 µM (active) in the assay with A549; 1.29 µM (inactive) with COLO 205; 5.37 µM (inactive) with DU-145; 23.4 µM with HCT-15; 1.82 µM (inactive) in the assay with IGROV-1. The GI50 is 1.35 µM (inactive) in the assay on KM12; 21.2 µM (inactive) in the assay with MDA-MB-435; 15 µM (inactive) in the assay with MDA-N; 1.2 µM (inactive) in the assay on NCI-H522; 91.8 µM (inactive) in the assay on NCI/ADR-RES; 4.53 µM (inactive) with OVCAR-3. Also, the GI50 in the assay with OVCAR-5 is 7.57 µM (inactive); with RPMI-8226, 7.24 µM (inactive); with RXF 393, 7.21 µM (inactive); in the assay with SF-268, 0.175 µM (active); in the assay on SK-MEL-2 it was 2.62 µM (inactive); in the assay with SNB-19, 0.333 µM (active). The GI50 is 2.07 µM (inactive) in the assay on T47D and 2.68 µM (inactive) with UACC-257.

(Values after ChEMBL document CHEMBL1201862, “PubChem BioAssay data set” (2004).)
